Experimental findings from patent US20240293490A1, “CHRYSANTHEMUM ZAWADSKII EXTRACT AND PREPARING METHOD THEREOF” (GREEN CROSS WELLBEING CORPORATION, priority 2023, published 2024) are described below.

Several values for one entry are separate records, joined by “and”; a condition that tells them apart may be missing. Identical values can stand only once.

For assay [1], the system named is male ICR mice. Description: Hot plate test, analgesic efficacy (central nervous system). It counts as in vivo, mouse. To be noted: G2, 60 mg/kg oral. Here is the method:
The experimental method used in this example is an analgesic efficacy experiment method using a hot plate test described in the “Guidelines for efficacy test of herbal preparations—General efficacy tests for painful diseases” announced by the Ministry of Food and Drug Safety, wherein the analgesic effect in the central nervous system of a mouse is measured with a response time to a heat stimulus as an index through a hot plate. At this time, the response time to the heat stimulus is measured as a time elapsed until the experimental animal licks the paw or jumps.
1) Celebrex (Celecoxib, Pfizer, 200 mg), Saline (Chungwae Pharmaceutical), Chrysanthemum extract (Green Cross HS) and male ICR mice (6 weeks old, weight 30-35 g, Orient Bio) were prepared. In this example, the Chrysanthemum extract was extracted by the organic solvent extraction method described in the above preparative example wherein it was extracted using 70% ethanol.
2) 60 mg/kg of Celebrex and 50, 100 and 200 mg/kg of Chrysanthemum extracts were prepared and orally administered to ICR mice, respectively. At this time, Celebrex is converted into administration concentration and suspended in saline while vortexing, and Chrysanthemum extract is suspended in 0.5% CMC and sonicated at 20 to 25° C. for about 10 minutes.
According to the efficacy experimental method using the hot plate test method, as the experimental animals, 5-week-old male ICR mice were purchased, acclimatized for 1 week, and then tested. The hot plate was maintained at 55° C., and drug administration was performed 30 minutes before this method. The central pain response due to heat was measured with an index, i.e., the time elapsed until the mouse licks the hind paw or jumps starting from contacting with the hot plate.
Then, the pain response due to heat was measured with an index, i.e., the time elapsed until the mouse licks the hind paw or jumps starting from contacting with the hot plate.
A general note: Thermal pain tests record how soon the animal reacts.

The test system of assay [2] is male ICR mice. Description: Acetic acid writhing test, analgesic efficacy (peripheral nerves). Conditions: G2, 60 mg/kg oral. The class given is in vivo, mouse. Here is the method:
The experimental method used in this example is the “Acetic acid writhing test” described in the “Guidelines for efficacy test of herbal preparations—General efficacy tests for painful diseases” announced by the Ministry of Food and Drug Safety, wherein acetic acid is administered intraperitoneally to cause damage of capillaries and pain in the abdominal cavity, and the analgesic effect in peripheral nerves is measured using the abdominal contractile response as an index.
1) Celebrex (Celecoxib, Pfizer, 200 mg), acetic acid (Daejunghwageum), Saline (Chungwae Pharmaceutical), Chrysanthemum extract (Green Cross HS) and male ICR mice (5 weeks old, Orient Bio) were prepared. In this example, the Chrysanthemum extract was extracted by the organic solvent extraction method described in the above preparative example wherein it was extracted using 70% ethanol.
2) 60 mg/kg of Celebrex and 50, 100 and 200 mg/kg of Chrysanthemum extracts were prepared and orally administered to ICR mice. At this time, Celebrex is converted into administration concentration and suspended in saline while vortexing, and Chrysanthemum extract is suspended in 0.5% CMC and sonicated at 20 to 25° C. for about 10 minutes.
For the experimental method for analgesic effects to the acetic acid writhing test, as the experimental animals, 4-week-old male ICR mice were purchased, acclimatized for 1 week, and then tested. The Chrysanthemum extract and control drug, respectively, were orally administered to mice by dose, followed by intraperitoneal injection of acetic acid (0.7% acetic acid-physiological saline (0.1 ml/10 g B.W.)) 30 minutes after administration. Subsequently, from 5 minutes after injection, the number of occurrences of writhing was measured for 10 minutes (FIG. 3).
Subsequently, from 5 minutes after the intraperitoneal administration, the number of occurrences of writhing syndrome was counted for 10 minutes and results thereof are shown in FIG. 10 and Table 14.
On the technique in general: In writhing tests, fewer writhes than in controls are read as antinociception.

As usually defined, the inhibition is the drop in the measured response relative to a control, in per cent.

Regarding `Cc1ccc(-c2cc(C(F)(F)F)nn2-c2ccc(S(N)(=O)=O)cc2)cc1` [Celecoxib], the “Response time, % of control (increase rate)” value in the assay on male ICR mice [1] turned out to be 53.9%. Also, in the assay with male ICR mice [1] (hot plate 55° C., mice 1-8), the “Response time, individual mouse” value was 26.94 s and 27.82 s and 35.55 s and 36.22 s and 28.54 s and 33.71 s and 32.71 s and 25.61 s. The “Response time, mean” value in the assay on male ICR mice [1] (n=8, control mean 20.07) turned out to be 30.89 s. Besides, the “Writhing syndrome/10 min, individual mouse” value with male ICR mice [2] (0.7% acetic acid i.p. 30 minutes after administration, mice 1-6) was 9.00 /10 min and 6.00 /10 min and 15.00 /10 min and 14.00 /10 min and 25.00 /10 min and 18.00 /10 min. In the assay with male ICR mice [2] (n=6, control mean 28.33), the “Writhing syndrome/10 min, mean” value is 14.50 /10 min. Further, in the assay on male ICR mice [2] (Mus musculus, read-out: Writhing syndrome, % of control (inhibition rate, reduction compared to control)), the inhibition at 60 mg/kg was 48.9%.
